According to patent US20070219237A1, “Chromane Derivatives” (Pfizer Inc, priority 2006, published 2007):

What was measured:
[1] = molecular target: T1, porcine gastric H^+/K^+-ATPase (Sus scrofa, UniProt P19156); test: Ion-tight porcine gastric H+/K+-ATPase inhibition; format: biochemical; conditions: ion-tight gastric vesicles, 150 mM KCl, 15 μM valinomycin, pH 7.4, 37° C., 30 minutes; read-out: IC50 of the inhibitory activity
T1 construct: prepared from mucous membrane in fresh porcine stomachs by homogenization; from tissue; host or cells: gastric vesicles from mucous membrane of fresh porcine stomachs
T1 sequence (P19156 2-1034 limits assumed): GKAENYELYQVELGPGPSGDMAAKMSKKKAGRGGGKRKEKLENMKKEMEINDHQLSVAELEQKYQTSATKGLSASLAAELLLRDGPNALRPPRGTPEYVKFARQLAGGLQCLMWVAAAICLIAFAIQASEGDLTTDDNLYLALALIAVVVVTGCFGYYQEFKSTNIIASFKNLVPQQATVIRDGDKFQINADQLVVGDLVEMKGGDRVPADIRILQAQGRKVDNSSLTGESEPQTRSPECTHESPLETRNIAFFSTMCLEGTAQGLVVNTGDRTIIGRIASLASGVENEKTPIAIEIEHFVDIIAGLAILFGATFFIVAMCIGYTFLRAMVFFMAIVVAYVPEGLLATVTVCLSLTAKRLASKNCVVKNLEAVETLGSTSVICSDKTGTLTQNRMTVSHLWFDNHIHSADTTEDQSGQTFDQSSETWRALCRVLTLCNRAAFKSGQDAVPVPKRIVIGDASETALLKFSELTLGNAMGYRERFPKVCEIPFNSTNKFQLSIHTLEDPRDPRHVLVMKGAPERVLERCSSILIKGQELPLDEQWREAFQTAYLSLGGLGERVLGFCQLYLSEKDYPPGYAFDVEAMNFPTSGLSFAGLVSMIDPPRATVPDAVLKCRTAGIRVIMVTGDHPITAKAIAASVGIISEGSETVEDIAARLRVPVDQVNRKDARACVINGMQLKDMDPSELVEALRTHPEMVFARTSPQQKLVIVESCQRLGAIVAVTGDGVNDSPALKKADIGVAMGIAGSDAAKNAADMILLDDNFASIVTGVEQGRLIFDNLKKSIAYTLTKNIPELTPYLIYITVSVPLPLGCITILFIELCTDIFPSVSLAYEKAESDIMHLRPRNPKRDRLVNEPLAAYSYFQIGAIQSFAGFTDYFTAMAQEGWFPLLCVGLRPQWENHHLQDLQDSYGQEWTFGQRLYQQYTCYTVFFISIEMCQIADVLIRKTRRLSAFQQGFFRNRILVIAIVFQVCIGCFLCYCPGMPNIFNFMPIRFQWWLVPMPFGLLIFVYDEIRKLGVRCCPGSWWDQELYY
T1 sequence (P18434 whole entry partner): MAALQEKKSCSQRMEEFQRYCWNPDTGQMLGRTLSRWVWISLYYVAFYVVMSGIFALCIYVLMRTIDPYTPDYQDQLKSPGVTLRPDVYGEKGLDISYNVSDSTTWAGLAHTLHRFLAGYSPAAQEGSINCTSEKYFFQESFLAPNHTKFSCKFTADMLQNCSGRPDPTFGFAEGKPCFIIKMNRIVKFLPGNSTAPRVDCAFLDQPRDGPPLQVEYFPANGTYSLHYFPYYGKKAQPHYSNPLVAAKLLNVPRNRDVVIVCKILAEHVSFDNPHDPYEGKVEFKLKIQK
Description: The porcine gastric vesicles for Porcine gastric H^+/K^+-ATPase inhibition assays were prepared from mucous membrane in fresh porcine stomachs by homogenization with a tight-fitted polytetrafluoroethylene (Teflone®) homogenizer in 0.25 M sucrose at 4° C. The crude pellet was removed with centrifugation at 20,000 g for 30 min. Then supernatant was centrifuged at 100,000 g for 30 min. The resulting pellet was re-suspended in 0.25 M sucrose, and then subjected to density gradient centrifugation at 132,000 g for 90 min. The gastric vesicles were collected from interface on 0.25 M sucrose layer containing 7% FicollTM PM400(Amersham Biosciences). This procedure was performed in a cold room.
Ion-tight porcine gastric H^+/K^+-ATPase inhibition was measured according to the modified method described in Biochemical Pharmacology, 1988, 37, 2231-2236.
The isolated vesicles were kept in deep-freezer until use. For enzyme assay, vesicles were diluted with 3 mM MgSO4 containing 5 mM Tris (pH 7.4 at 37° C.).
Enzyme reaction was performed incubating 150 mM KCl, 3 mM Na2ATP, 3 mM MgSO4, 15 μM valinomycin and 3.0 μg of vesicles for 30 minutes at 37° C. in a final 60 μl of reaction mixture (5mM Tris, pH 7.4) with or without the test compound. Enzyme reaction was stopped by adding 10% SDS. Released inorganic phosphate from ATP was detected by incubating with mixture of 1 part of 35 mM ammonium molybdate tetrahydrate in 15 mM Zinc acetate hydrate and 4 parts of 10% ascorbic acid (pH 5.0), resulting in phosphomolybdate, which has optical density at 750 nm.

Compound | IC50 [1] | melting point
Cc1nc2c(NC3CCOc4cccc(F)c43)cc(C(=O)N(C)C)cn2c1CO (single isomer, unassigned; (+)) [Example 4-3, (+)-8-[(5-Fluoro-3,4-dihydro-2H-chromen-4yl)-amino]-3-(hydroxymethyl)-N,N,2-trimethylimidazo [1,2-a]pyridine-6-carboxamide] | 0.03 µM | –
Cc1nc2c(NC3CCOc4ccccc43)cc(C(=O)N(C)C)cn2c1CO (racemic) [Example 2-1, 8-(3,4-Dihydro-2H-chromen-4-ylamino)-3-(hydroxymethyl)-N,N,2-trimethylimidazo[1,2a]pyridine-6-carboxamide] | 0.075 µM | –
Cc1nc2c(N[C@H]3CCOc4cc(F)cc(F)c43)cc(C(=O)N(C)C)cn2c1CO (single isomer, unassigned) [Example 3-3] | – | 186 °C
Cc1nc2c(NC3CCOc4ccccc43)cc(C(=O)N3CCOCC3)cn2c1CO (racemic) [Example 7-1, [8-(3,4-Dihydro-2H-chromen-4-ylamino)_-2-methyl-6-(morpholin-4-ylcarbonyl)imidazo[1,2-a]pyridin-3-yl]methanol] | 0.14 µM | –
Cc1nc2c(NC3CCOc4cc(F)cc(F)c43)cc(C(=O)N(C)C)cn2c1CO (single isomer, unassigned) [Example 3-2] | 0.037 µM | –
Cc1cccc2c1C(Nc1cc(C(=O)N(C)C)cn3c(CO)c(C)nc13)CCO2 (single isomer, unassigned) [Example 1-3] | 0.089 µM | –
Cc1cccc2c1C(Nc1cc(C(=O)N3CCOCC3)cn3c(CO)c(C)nc13)CCO2 (single isomer, unassigned; (+)) [Example 6-3, (+)-[2-Methyl-8-[(5-methyl-3,4-dihydro-2H-chromen-4-yl)amino]-6-(morpholin-4-ylcarbonyl)imidazo[1,2-a]pyridin-3-yl]methanol] | 0.061 µM | –
Cc1cccc2c1[C@@H](Nc1cc(C(=O)N(C)C)cn3c(CO)c(C)nc13)CCO2 (single isomer, unassigned) [Example 1-2] | 0.084 µM | –
Cc1nc2c(NC3CCOc4cc(F)cc(F)c43)cc(C(=O)N(C)C)cn2c1CO (single isomer, unassigned) [Example 3-3] | 0.041 µM | –
Cc1nc2c(NC3CCOc4cccc(F)c43)cc(C(=O)N(C)C)cn2c1CO (single isomer, unassigned; (-)) [Example 4-2, (−)-8-[(5-Fluoro-3,4-dihydro-2H-chromen-4-yl)amino]-3-(hydroxymethyl)-N,N,2-trimethylimidazo [1,2a]pyridine-6-carboxamide] | 0.029 µM | –
Cc1nc2c(NC3CCOc4ccccc43)cc(C(=O)N(C)C)cn2c1CO (single isomer, unassigned; (+)) [Example 2-2, (+)-8-(3,4-Dihydro-2H-chromen-4-ylamino)-3-(hydroxymethyl)-N,N,2-trimethylimidazo[1,2-a]pyridine-6-car boxamide] | 0.061 µM | –
Cc1cccc2c1C(Nc1cc(C(=O)N3CCOCC3)cn3c(CO)c(C)nc13)CCO2 (single isomer, unassigned; (-)) [Example 6-2] | 0.043 µM | –
Cc1nc2c(NC3CCOc4ccccc43)cc(C(=O)N(C)C)cn2c1CO (single isomer, unassigned; (-)) [Example 2-3] | 0.067 µM | –

Second part, the molecule after the results:

IC50 [1] | melting point | Compound
0.061 µM | – | Cc1nc2c(NC3CCOc4cccc(F)c43)cc(C(=O)N3CCOCC3)cn2c1CO (single isomer, unassigned; (-)) [Example 9-3]
0.055 µM | – | Cc1nc2c(NC3CCOc4cc(F)cc(F)c43)cc(C(=O)N3CCOCC3)cn2c1CO (racemic) [Example 8-1]
0.096 µM | – | Cc1nc2c(NC3CCOc4ccccc43)cc(C(=O)N3CCOCC3)cn2c1CO (single isomer, unassigned; (-)) [Example 7-2, (−)-[f8-(3,4-Dihydro-2H-chromen-4-ylamino)-2-methyl-6-(morpholin-4-ylcarbonyl)imidazo[1,2-a]pyridin-3-yl]methanol]
0.072 µM | – | Cc1nc2c(NC3CCOc4cccc(F)c43)cc(C(=O)N3CCOCC3)cn2c1CO (single isomer, unassigned; (+)) [Example 9-2]
0.052 µM | – | Cc1nc2c(NC3CCOc4cc(F)cc(F)c43)cc(C(=O)N3CCOCC3)cn2c1CO (single isomer, unassigned; (-)) [Example 8-3, (−)-[8-[5,7-Difluoro-3,4-dihydro-2H-chromen-4-yl)amino]-2-methyl-6-(morpholin-4-ylcarbonyl)imidazo[1,2-a]pyridin-3-ylmethanol]
0.047 µM | – | Cc1nc2c(NC3CCOc4cccc(F)c43)cc(C(=O)N3CCOCC3)cn2c1CO (racemic) [Example 9-1, [8-[(5-Fluoro-3,4-dihydro-2H-chromen-4-yl)amino]-2-methyl-6-(morpholin-4-ylcarbonyl)imidazo[1,2-a]pyridin-3-yl]methanol]
0.11 µM | – | Cc1nc2c(NC3CCOc4ccccc43)cc(C(=O)N3CCOCC3)cn2c1CO (single isomer, unassigned; (+)) [Example 7-3, (+)-[8-(3,4-Dihydro-2H-chromen-4-ylamino)-2-methyl-6-(morpholin-4-ylcarbonyl)imidazo[1,2-a]pyridin-3-yl]methanol]
0.04 µM | – | Cc1nc2c(NC3CCOc4cc(F)cc(F)c43)cc(C(=O)N3CCOCC3)cn2c1CO (single isomer, unassigned; (+)) [Example 8-2, (+)-[8-[(5,7-Difluoro-3,4-dihydro-2H-chromen-4-yl)amino]-2-methyl-6-(morpholin-4-ylcarbonyl)imidazo[1,2-a]pyridin-3-yl]methanol]
